According to ChEMBL document CHEMBL3351747, “Structure-based design of β1i or β5i specific inhibitors of human immunoproteasomes” (J Med Chem, 2014):

Assays:
[1] = Inhibition of 20s proteasome subunit beta-5c in human Raji cells using BODIPY-NC005 by fluorescent densitometry; format: cell-based
[2] = biological target: T1, Proteasome subunit beta type-8 (Homo sapiens, UniProt P28062); assay: Inhibition of proteasome subunit beta-5i in human Raji cells using BODIPY-NC005 by fluorescent densitometry; format: cell-based
T1 sequence (P28062 whole entry): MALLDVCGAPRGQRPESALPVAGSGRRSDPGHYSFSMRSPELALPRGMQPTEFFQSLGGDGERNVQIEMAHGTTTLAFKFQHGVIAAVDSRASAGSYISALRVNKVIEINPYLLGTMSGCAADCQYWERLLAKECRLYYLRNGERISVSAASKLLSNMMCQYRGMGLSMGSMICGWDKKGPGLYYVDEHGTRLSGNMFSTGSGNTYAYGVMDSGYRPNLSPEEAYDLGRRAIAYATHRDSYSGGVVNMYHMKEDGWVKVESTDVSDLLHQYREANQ

[3] = Inhibition of 20s proteasome subunit beta-1c in human Raji cells using BODIPY- epoxomicin by fluorescent densitometry; format: cell-based
Raji = assay: Ratio of IC50 for 20s proteasome subunit beta-1c to IC50 for proteasome subunit beta-1i in human Raji cells; format: cell-based
[4] = biological target: T2, Proteasome subunit beta type-9 (Homo sapiens, UniProt P28065); assay: Inhibition of proteasome subunit beta-1i in human Raji cells using BODIPY- epoxomicin by fluorescent densitometry; format: cell-based
T2 sequence (P28065 whole entry): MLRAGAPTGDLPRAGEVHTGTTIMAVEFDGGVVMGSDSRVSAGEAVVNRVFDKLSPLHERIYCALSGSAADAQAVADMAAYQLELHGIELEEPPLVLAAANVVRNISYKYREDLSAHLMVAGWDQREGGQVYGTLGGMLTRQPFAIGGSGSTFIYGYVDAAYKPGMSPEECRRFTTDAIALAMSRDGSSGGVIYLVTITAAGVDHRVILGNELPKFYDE

[5] = biological target: T3, Proteasome subunit beta type-10 (Homo sapiens, UniProt P40306); assay: Inhibition of proteasome subunit beta-2i in human Raji cells using BODIPY- epoxomicin by fluorescent densitometry; format: cell-based
T3 sequence (P40306 whole entry): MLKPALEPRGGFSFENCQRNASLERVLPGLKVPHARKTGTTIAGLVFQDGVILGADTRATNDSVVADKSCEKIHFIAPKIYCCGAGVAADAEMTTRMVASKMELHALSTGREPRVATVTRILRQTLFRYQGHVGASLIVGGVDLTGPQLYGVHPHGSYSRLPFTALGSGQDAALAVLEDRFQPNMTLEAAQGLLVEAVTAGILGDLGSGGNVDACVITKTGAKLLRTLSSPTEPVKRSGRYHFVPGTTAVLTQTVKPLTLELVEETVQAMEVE

[6] = biological target: T2, Proteasome subunit beta type-9; assay: Inhibition of proteasome subunit beta-1i in human RPMI8226 cells using BODIPY-NC001 by fluorescent densitometry; format: cell-based, RPMI-8226
[7] = Inhibition of 20s proteasome subunit beta-2c in human RPMI8226 cells using BODIPY-epoxomicin by fluorescent densitometry; format: cell-based; details: rpmi-8226
[8] = Inhibition of 20s proteasome subunit beta-2c in human Raji cells using BODIPY- epoxomicin by fluorescent densitometry; format: cell-based
[9] = biological target: T3, Proteasome subunit beta type-10; assay: Inhibition of proteasome subunit beta-2i in human RPMI8226 cells using BODIPY-epoxomicin by fluorescent densitometry; format: cell-based, RPMI-8226
[10] = biological target: T1, Proteasome subunit beta type-8; assay: Inhibition of proteasome subunit beta-5i in human RPMI8226 cells using BODIPY-NC005 by fluorescent densitometry; format: cell-based, RPMI-8226
[11] = Inhibition of 20s proteasome subunit beta-5c in human RPMI8226 cells using BODIPY-NC005 by fluorescent densitometry; format: cell-based; details: rpmi-8226
[12] = Inhibition of 20s proteasome subunit beta-1c in human RPMI8226 cells using BODIPY-NC001 by fluorescent densitometry; format: cell-based; details: rpmi-8226

SMILES | IC50 [1] [nM] | IC50 [2] [nM] | IC50 [3] [nM] | Ratio IC50 (Raji) | IC50 [4] [nM] | other results
CC1=C(C(=O)N[C@H](C)C(=O)N[C@@H](Cc2c[nH]c3ccccc23)C(=O)N[C@H](/C=C/S(C)(=O)=O)CC2CCCCC2)Cc2ccccc21 | 62000 | 632 | – | – | – | –
CCCC[C@H](NC(=O)[C@@H]1CCCCN1C(=O)[C@H](C)NC(=O)CN=[N+]=[N-])C(=O)N[C@@H](CC(C)C)C(=O)[C@@]1(C)CO1 | – | – | 250 | 3.7 | 67 | –
COc1ccc(C[C@H](NC(=O)[C@H](C)NC(=O)CN2CCOCC2)C(=O)N[C@@H](Cc2cccc3ccccc23)C(=O)[C@@]2(C)CO2)cc1 | 1800 | 244 | – | – | – | –
CCCC[C@H](NC(=O)[C@@H]1C[C@@H](F)CN1C(=O)[C@H](C)NC(=O)CN=[N+]=[N-])C(=O)N[C@@H](CC(C)C)C(=O)[C@@]1(C)CO1 | – | – | 66 | 3 | 22 | –
CCCC[C@H](NC(=O)[C@@H]1CC(F)(F)CN1C(=O)[C@H](C)NC(=O)CN=[N+]=[N-])C(=O)N[C@@H](Cc1ccccc1)C(=O)[C@@]1(C)CO1 | – | – | 4800 | 114 | 42 | IC50 [5]: > 100000 nM
COc1ccc(C[C@H](NC(=O)[C@@H](C)NC(=O)C2=C(C)c3ccccc3C2)C(=O)N[C@@H](Cc2ccc(-c3ccccc3)cc2)C(=O)[C@@]2(C)CO2)cc1 | 43 | 3.3 | – | – | – | –
COc1ccc(C[C@H](NC(=O)[C@H](C)NC(=O)C2=C(C)c3ccccc3C2)C(=O)N[C@@H](CC2CCCCC2)C(=O)[C@@]2(C)CO2)cc1 | 14.5 | 3 | – | – | – | –
CC1=C(C(=O)N[C@H](C)C(=O)N[C@@H](Cc2c[nH]c3ccccc23)C(=O)N[C@@H](Cc2ccc(-c3ccccc3)cc2)C(=O)[C@@]2(C)CO2)Cc2ccccc21 | 79 | 5 | – | – | – | –
COc1ccc(C[C@H](NC(=O)[C@@H](C)NC(=O)C2=C(C)c3ccccc3C2)C(=O)N[C@@H](CC2CCCCC2)C(=O)[C@@]2(C)CO2)cc1 | 5500 | 11 | > 10000 | – | > 10000 | IC50 [6]: > 100000 nM; IC50 [5]: > 10000 nM; IC50 [7]: > 100000 nM; IC50 [8]: > 10000 nM; IC50 [9]: > 100000 nM; IC50 [10]: 370 nM; IC50 [11]: > 100000 nM; IC50 [12]: > 100000 nM
CCCC[C@H](NC(=O)[C@@H]1CC(F)(F)CN1C(=O)[C@H](C)NC(=O)CN=[N+]=[N-])C(=O)N[C@@H](CC(C)C)C(=O)[C@@]1(C)CO1 | – | – | 360 | 10.5 | 34 | –
COc1ccc(C[C@H](NC(=O)[C@H](C)NC(=O)CN2CCOCC2)C(=O)N[C@@H](Cc2ccc(-c3ccccc3)cc2)C(=O)[C@@]2(C)CO2)cc1 | 20 | 2 | – | – | – | –
CCCC[C@H](NC(=O)[C@@H]1CCN1C(=O)[C@H](C)NC(=O)CN=[N+]=[N-])C(=O)N[C@@H](CC(C)C)C(=O)[C@@]1(C)CO1 | – | – | 54 | 0.6 | 96 | –
COc1ccc(C[C@H](NC(=O)[C@H](C)NC(=O)C2=C(C)c3ccccc3C2)C(=O)N[C@@H](Cc2ccc(-c3ccccc3)cc2)C(=O)[C@@]2(C)CO2)cc1 | 12.6 | 1.4 | – | – | – | –
CCCCCCC(=O)N[C@@H](C)C(=O)N[C@@H](CC(C)C)C(=O)[C@@]1(CO[Si](C)(C)C(C)(C)C)CO1 | – | – | 15000 | 144 | 104 | IC50 [5]: 25000 nM
COc1ccc(C[C@H](NC(=O)[C@H](C)NC(=O)CN2CCOCC2)C(=O)N[C@@H](Cc2ccc3ccccc3c2)C(=O)[C@@]2(C)CO2)cc1 | 97 | 3.1 | – | – | – | –
CCCC[C@H](NC(=O)[C@@H]1C[C@@H](O)CN1C(=O)[C@H](C)NC(=O)CN=[N+]=[N-])C(=O)N[C@@H](CC(C)C)C(=O)[C@@]1(C)CO1 | – | – | 860 | 5 | 170 | –
COc1ccc(C[C@H](NC(=O)[C@H](C)NC(=O)CN2CCOCC2)C(=O)N[C@H](/C=C/S(C)(=O)=O)CC2CCCCC2)cc1 | > 100000 | 5700 | – | – | – | –
